Results from PubChem BioAssay (NCI).
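Values below derive from 48-hour exposures of cells grown in 96-well plates, with endpoints linearly interpolated between the two concentrations bracketing the appropriate inhibition level. At the TGI there is no net growth.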

How the values were obtained:
Assay in all cases: NCI tumour cell line growth inhibition, 48 h
OVCAR-3 ovarian = test system: OVCAR-3 ovarian
HCT-15 colon = test system: HCT-15 colon
SF-539 CNS = test system: SF-539 CNS
M19-MEL melanoma = test system: M19-MEL melanoma
SF-268 CNS = test system: SF-268 CNS
LXFL 529 NSCLC = test system: LXFL 529 NSCLC
K-562 leukemia = test system: K-562 leukemia
ACHN renal = test system: ACHN renal
LOX IMVI melanoma = test system: LOX IMVI melanoma
A549 NSCLC = test system: A549 NSCLC
UO-31 renal = test system: UO-31 renal
HT29 colon = test system: HT29 colon
HL-60(TB) leukemia = test system: HL-60(TB) leukemia
SK-MEL-5 melanoma = test system: SK-MEL-5 melanoma
NCI-H23 lung = test system: NCI-H23 lung
SNB-19 CNS = test system: SNB-19 CNS
SK-MEL-2 melanoma = test system: SK-MEL-2 melanoma
HOP-18 NSCLC = test system: HOP-18 NSCLC
KM20L2 colon = test system: KM20L2 colon
SK-OV-3 ovarian = test system: SK-OV-3 ovarian
NCI-H226 lung = test system: NCI-H226 lung
RPMI-8226 leukemia = test system: RPMI-8226 leukemia
HCT-116 colon = test system: HCT-116 colon
DMS 114 small cell lung = test system: DMS 114 small cell lung
SNB-78 CNS = test system: SNB-78 CNS
DLD-1 colon = test system: DLD-1 colon
OVCAR-8 ovarian = test system: OVCAR-8 ovarian
SW-620 colon = test system: SW-620 colon
A498 renal = test system: A498 renal
EKVX NSCLC = test system: EKVX NSCLC
MOLT-4 leukemia = test system: MOLT-4 leukemia
XF 498 CNS = test system: XF 498 CNS
MALME-3M melanoma = test system: MALME-3M melanoma
CCRF-CEM leukemia = test system: CCRF-CEM leukemia
TK-10 renal = test system: TK-10 renal
UACC-257 melanoma = test system: UACC-257 melanoma
HCC-2998 colon = test system: HCC-2998 colon
OVCAR-4 ovarian = test system: OVCAR-4 ovarian
IGROV1 ovarian = test system: IGROV1 ovarian
NCI-H522 lung = test system: NCI-H522 lung
RXF 393 renal = test system: RXF 393 renal
NCI-H460 lung = test system: NCI-H460 lung
U251 CNS = test system: U251 CNS
SF-295 CNS = test system: SF-295 CNS
HOP-62 NSCLC = test system: HOP-62 NSCLC
RXF-631 renal = test system: RXF-631 renal
SR leukemia = test system: SR leukemia
M14 melanoma = test system: M14 melanoma
DMS 273 small cell lung = test system: DMS 273 small cell lung
SN12C renal = test system: SN12C renal
OVCAR-5 ovarian = test system: OVCAR-5 ovarian
UACC-62 melanoma = test system: UACC-62 melanoma
SNB-75 CNS = test system: SNB-75 CNS
CAKI-1 renal = test system: CAKI-1 renal
COLO 205 colon = test system: COLO 205 colon
786-0 renal = test system: 786-0 renal
KM12 colon = test system: KM12 colon

Structure (SMILES): COc1ccc(C(=O)Cc2ccc(Br)cc2)cc1OC
- TGI (OVCAR-3 ovarian): > 100 µM
- TGI (HCT-15 colon): > 100 µM
- TGI (SF-539 CNS): > 100 µM
- TGI (M19-MEL melanoma): > 100 µM
- TGI (SF-268 CNS): > 100 µM
- TGI (LXFL 529 NSCLC): > 100 µM
- TGI (K-562 leukemia): > 100 µM
- TGI (ACHN renal): > 100 µM
- TGI (LOX IMVI melanoma): > 100 µM
- TGI (A549 NSCLC): > 100 µM
- TGI (UO-31 renal): > 100 µM
- TGI (HT29 colon): > 100 µM
- TGI (HL-60(TB) leukemia): > 100 µM
- TGI (SK-MEL-5 melanoma): > 100 µM
- TGI (NCI-H23 lung): > 100 µM
- TGI (SNB-19 CNS): > 100 µM
- TGI (SK-MEL-2 melanoma): > 100 µM
- TGI (HOP-18 NSCLC): > 100 µM
- TGI (KM20L2 colon): > 100 µM
- TGI (SK-OV-3 ovarian): > 100 µM
- TGI (NCI-H226 lung): > 100 µM
- TGI (RPMI-8226 leukemia): > 100 µM
- TGI (HCT-116 colon): > 100 µM
- TGI (DMS 114 small cell lung): > 100 µM
- TGI (SNB-78 CNS): > 100 µM
- TGI (DLD-1 colon): > 100 µM
- TGI (OVCAR-8 ovarian): > 100 µM
- TGI (SW-620 colon): > 100 µM
- TGI (A498 renal): > 100 µM
- TGI (EKVX NSCLC): > 100 µM
- TGI (MOLT-4 leukemia): > 100 µM
- TGI (XF 498 CNS): 71 µM
- TGI (MALME-3M melanoma): > 100 µM
- TGI (CCRF-CEM leukemia): > 100 µM
- TGI (TK-10 renal): > 100 µM
- TGI (UACC-257 melanoma): > 100 µM
- TGI (HCC-2998 colon): > 100 µM
- TGI (OVCAR-4 ovarian): > 100 µM
- TGI (IGROV1 ovarian): > 100 µM
- TGI (NCI-H522 lung): > 100 µM
- TGI (RXF 393 renal): > 100 µM
- TGI (NCI-H460 lung): > 100 µM
- TGI (U251 CNS): > 100 µM
- TGI (SF-295 CNS): > 100 µM
- TGI (HOP-62 NSCLC): > 100 µM
- TGI (RXF-631 renal): > 100 µM
- TGI (SR leukemia): > 100 µM
- TGI (M14 melanoma): > 100 µM
- TGI (DMS 273 small cell lung): > 100 µM
- TGI (SN12C renal): > 100 µM
- TGI (OVCAR-5 ovarian): > 100 µM
- TGI (UACC-62 melanoma): > 100 µM
- TGI (SNB-75 CNS): 54.5 µM
- TGI (CAKI-1 renal): > 100 µM

Structure (SMILES): Cc1[nH]c2ccccc2c1C1Cc2ccccc2N1C(=O)/C=C/C(=O)O (centres undefined)
- TGI (OVCAR-3 ovarian): > 100 µM
- TGI (HCT-15 colon): 33 µM
- TGI (COLO 205 colon): > 100 µM
- TGI (SF-539 CNS): > 100 µM
- TGI (M19-MEL melanoma): > 100 µM
- TGI (SF-268 CNS): > 100 µM
- TGI (LXFL 529 NSCLC): > 100 µM
- TGI (K-562 leukemia): > 100 µM
- TGI (ACHN renal): > 100 µM
- TGI (LOX IMVI melanoma): > 100 µM
- TGI (A549 NSCLC): > 100 µM
- TGI (UO-31 renal): > 100 µM
- TGI (HT29 colon): > 100 µM
- TGI (HL-60(TB) leukemia): > 100 µM
- TGI (SK-MEL-5 melanoma): > 100 µM
- TGI (NCI-H23 lung): > 100 µM
- TGI (SNB-19 CNS): > 100 µM
- TGI (786-0 renal): > 100 µM
- TGI (SK-MEL-2 melanoma): > 100 µM
- TGI (KM20L2 colon): > 100 µM
- TGI (SK-OV-3 ovarian): > 100 µM
- TGI (NCI-H226 lung): > 100 µM
- TGI (HCT-116 colon): > 100 µM
- TGI (DMS 114 small cell lung): > 100 µM
- TGI (SNB-78 CNS): > 100 µM
- TGI (DLD-1 colon): > 100 µM
- TGI (OVCAR-8 ovarian): > 100 µM
- TGI (SW-620 colon): > 100 µM
- TGI (A498 renal): > 100 µM
- TGI (EKVX NSCLC): > 100 µM
- TGI (MOLT-4 leukemia): > 100 µM
- TGI (XF 498 CNS): > 100 µM
- TGI (MALME-3M melanoma): > 100 µM
- TGI (CCRF-CEM leukemia): > 100 µM
- TGI (TK-10 renal): > 100 µM
- TGI (UACC-257 melanoma): > 100 µM
- TGI (HCC-2998 colon): > 100 µM
- TGI (OVCAR-4 ovarian): > 100 µM
- TGI (IGROV1 ovarian): > 100 µM
- TGI (NCI-H522 lung): > 100 µM
- TGI (RXF 393 renal): > 100 µM
- TGI (NCI-H460 lung): 61.3 µM
- TGI (U251 CNS): > 100 µM
- TGI (KM12 colon): > 100 µM
- TGI (SF-295 CNS): > 100 µM
- TGI (HOP-62 NSCLC): > 100 µM
- TGI (RXF-631 renal): 41.3 µM
- TGI (SR leukemia): > 100 µM
- TGI (M14 melanoma): > 100 µM
- TGI (DMS 273 small cell lung): > 100 µM
- TGI (SN12C renal): > 100 µM
- TGI (OVCAR-5 ovarian): > 100 µM
- TGI (UACC-62 melanoma): > 100 µM
- TGI (SNB-75 CNS): > 100 µM
- TGI (CAKI-1 renal): > 100 µM
